Assay results as given in patent US8962608B2, “Cycloalkylnitrile pyrazole carboxamides as janus kinase inhibitors” (Merck Sharp & Dohme Corp., priority 2011, dated 2015).

molecular target: JAK2 (recombinant purified GST-tagged catalytic domain) (Homo sapiens (Human), UniProt O60674); assay: biochemical
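Further: biochemical JAK kinase assay with HTRF detection.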

JAK2 (recombinant purified GST-tagged catalytic domain), sequence (O60674 849-1124): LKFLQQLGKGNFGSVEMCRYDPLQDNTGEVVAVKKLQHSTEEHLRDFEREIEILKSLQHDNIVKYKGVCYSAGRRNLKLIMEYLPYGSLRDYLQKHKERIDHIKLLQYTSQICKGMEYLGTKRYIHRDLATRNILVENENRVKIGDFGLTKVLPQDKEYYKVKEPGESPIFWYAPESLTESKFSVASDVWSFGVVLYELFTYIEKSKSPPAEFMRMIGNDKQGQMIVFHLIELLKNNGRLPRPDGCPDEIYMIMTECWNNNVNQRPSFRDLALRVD

Row | Compound | IC50
1 | CC(C)(C)OC(=O)NC1CC[C@H](C#N)C(n2cc(C(N)=O)c(Nc3ccc(F)cc3)n2)C1 (mixture of isomers) [Example 11-5, tert-butyl [(1R,3S,4S and 1S,3R,4R) or (1S,3S,4S and 1R,3R,4R)-3-{4-carbamoyl-3-[(4-fluorophenyl)amino]-1H-pyrazol-1-yl}-4-cyanocyclohexyl]carbamate] | 0.022 µM
2 | N#C[C@H]1CC(NC2CC2)CCC1n1cc(C(N)=O)c(Nc2ccc(S(=O)(=O)C(F)(F)F)cc2)n1 (mixture of isomers) [Example 27-10, 1-[(1S,2S and 1R,2R)-2-cyano-4-(cyclopropylamino)cyclohexyl]-3-({4-[(trifluoromethyl)sulfonyl]phenyl}amino)-1H-pyrazole-4-carboxamide] | 0.007 µM
3 | N#C[C@H]1C[C@@H](OCC2CC2)CC[C@H]1n1cc(C(N)=O)c(Nc2ccc(F)cc2)n1 (single isomer, unassigned) [Example 26-11, 1-[(1R,2S,4S or 1S,2R,4R)-2-cyano-4-(cyclopropylmethoxy)cyclohexyl]-3-[(4-fluorophenyl)amino]-1H-pyrazole-4-carboxamide] | > 1.5 µM
4 | N#C[C@H]1C[C@H](OCC2CC2)CC[C@@H]1n1cc(C(N)=O)c(Nc2ccc([C@@H](O)C(F)(F)F)cc2)n1 (single isomer, unassigned) [Example 26-5, 1-[(1S,2S,4R or 1R,2R,4S)-2-cyano-4-(cyclopropylmethoxy)cyclohexyl]-3-({4-[(1R or 1S)-2,2,2-trifluoro-1-hydroxyethyl]phenyl}amino)-1H-pyrazole-4-carboxamide] | 0.014 µM
5 | N#C[C@H]1C[C@H](O)CC[C@@H]1n1cc(C(N)=O)c(Nc2ccc(C(F)(F)F)c(F)c2)n1 (single isomer, unassigned) [Example 25-23, 1-[(1S,2S,4R or 1R,2R,4S)-2-cyano-4-hydroxycyclohexyl]-3-{[3-fluoro-4-(trifluoromethyl)phenyl]amino}-1H-pyrazole-4-carboxamide] | 0.028 µM
6 | N#C[C@H]1CCCC[C@@H]1n1cc(C(N)=O)c(Nc2ccc(F)c(Cl)c2)n1 (racemic) [Example 17-58, 3-[(3-chloro-4-fluorophenyl)amino]-1-[(1S,2S and 1R,2R)-2-cyanocyclohexyl]-1H-pyrazole-4-carboxamide] | 0.042 µM
7 | CC(C)(C)OC(=O)NC1CC[C@H](C#N)C(n2cc(C(N)=O)c(Nc3ccc(F)cc3)n2)C1 (mixture of isomers) [Example 11-3, tert-butyl [(1R,3S,4S and 1S,3R,4R) or (1S,3S,4S and 1R,3R,4R)-3-{4-carbamoyl-3-[(4-fluorophenyl)amino]-1H-pyrazol-1-yl}-4-cyanocyclohexyl]carbamate] | 0.049 µM
8 | N#C[C@H]1CCCC[C@@H]1n1cc(C(N)=O)c(Nc2cccnc2)n1 (racemic) [Example 17-13, 1-[(1S,2S and 1R,2R)-2-cyanocyclohexyl]-3-(pyridin-3-ylamino)-1H-pyrazole-4-carboxamide] | 0.036 µM

Now from value to molecule:

Row | IC50 | Compound
9 | 0.031 µM | N#C[C@H]1C[C@@H](NCC(F)(F)F)CC[C@@H]1n1cc(C(N)=O)c(Nc2ccc(S(=O)(=O)C(F)(F)F)cc2)n1 (single isomer, unassigned) [Example 28-107, 1-{(1S,2S,4S or 1R,2R,4R)-2-cyano-4-[(2,2,2-trifluoroethyl)amino]cyclohexyl}-3-({4-[(trifluoro-methyl)sulfonyl]phenyl}amino)-1H-pyrazole-4-carboxamide]
10 | 0.043 µM | CC(C)(C)OC(=O)N[C@@H]1CC[C@H](C#N)C(n2cc(C(N)=O)c(Nc3ccc(F)cc3)n2)C1 (single isomer, unassigned) [Example 44-1, tert-Butyl[(1R,3S,4S or 1S,3R,4R)-3-{4-carbamoyl-3-[(4-fluorophenyl)amino]-1H-pyrazol-1-yl}-4-cyanocyclohexyl]carbamate]
11 | 0.007 µM | CN([C@H]1CCC(n2cc(C(N)=O)c(Nc3ccc(Cl)cc3)n2)[C@@H](C#N)C1)C1(C)COC1 (single isomer, unassigned) [Example 28-232, 3-[(4-chlorophenyl)amino]-1-{(1S,2S,4S or 1R,2R,4R)-2-cyano-4-[methyl(3-methyloxetan-3-yl)amino]cyclohexyl}-1H-pyrazole-4-carboxamide]
12 | 0.2 µM | C[C@H](N[C@H]1CC[C@H](n2cc(C(N)=O)c(Nc3ccc(C(F)(F)F)nc3)n2)[C@@H](C#N)C1)C1CC1 (single isomer, unassigned) [Example 28-8, 1-[(1S,2S,4S or 1R,2R,4R)-2-cyano-4-{[(1S)-1-cyclopropylethyl]amino}cyclo-hexyl]-3-{[6-(trifluoromethyl)pyridin-3-yl]amino}-1H-pyrazole-4-carboxamide]
13 | 0.055 µM | N#C[C@H]1C[C@@H](NCCC(F)(F)F)CC[C@@H]1n1cc(C(N)=O)c(Nc2ccc(S(=O)(=O)C(F)(F)F)cc2)n1 (single isomer, unassigned) [Example 28-166, 1-{(1S,2S,4S or 1R,2R,4R)-2-cyano-4-[(3,3,3-trifluoro-propyl)amino]cyclohexyl}-3-({4-[(trifluoro-methyl)sulfonyl]phenyl}amino)-1H-pyrazole-4-carboxamide]
14 | 0.022 µM | N#C[C@H]1C[C@@H](NC2CC2)CC[C@@H]1n1cc(C(N)=O)c(Nc2ccc(C(F)(F)F)cc2)n1 (single isomer, unassigned) [Example 28-137, 1-[(1S,2S,4S or 1R,2R,4R)-2-cyano-4-(cyclopropylamino)cyclohexyl]-3-{[4-(trifluoromethyl)phenyl]amino}-1H-pyrazole-4-carboxamide]
15 | 0.12 µM | N#C[C@H]1C[C@H](N2CCC2)CC[C@@H]1n1cc(C(N)=O)c(Nc2ccc(Cl)c(F)c2)n1 (single isomer, unassigned) [Example 28-37, 1-[(1S,2S,4R or 1R,2R,4S)-4-azetidin-1-yl-2-cyanocyclohexyl]-3-[(4-chloro-3-fluorophenyl)amino]-1H-pyrazole-4-carboxamide]
16 | 0.016 µM | N#C[C@H]1C[C@@H](N2CCC2)CC[C@@H]1n1cc(C(N)=O)c(Nc2ccc(C=O)cc2)n1 (single isomer, unassigned) [Example 28-66, 1-[(1S,2S,4S or 1R,2R,4R)-4-azetidin-1-yl-2-cyanocyclohexyl]-3-[(4-formylphenyl)amino]-1H-pyrazole-4-carboxamide]
17 | 0.078 µM | N#C[C@@H]1C[C@H](C(=O)NC2CCC2)CC[C@H]1n1cc(C(N)=O)c(Nc2ccc(Cl)cc2)n1 (single isomer, unassigned) [Example 35-11, 3-[(4-chlorophenyl)amino]-1-[(1R,2R,4R or 1S,2S,4S)-2-cyano-4-(cyclobutylcarbamoyl)cyclohexyl]-1H-pyrazole-4-carboxamide]
18 | 0.113 µM | N#C[C@H]1C[C@H](NC2CC2)CC[C@@H]1n1cc(C(N)=O)c(Nc2ccc(C(F)(F)F)cc2)n1 (single isomer, unassigned) [Example 28-139, 1-[(1S,2S,4R or 1R,2R,4R)-2-cyano-4-(cyclopropylamino)cyclohexyl]-3-{[4-(trifluoromethyl)phenyl]amino}-1H-pyrazole-4-carboxamide]
19 | 0.145 µM | CN(C)[C@H]1CC[C@H](n2cc(C(N)=O)c(Nc3ccc(C(F)(F)F)nc3)n2)[C@@H](C#N)C1 (single isomer, unassigned) [Example 28-22, 1-[(1S,2S,4S or 1R,2R,4R)-2-cyano-4-(dimethylamino)cyclohexyl]-3-{[6-(trifluoromethyl)pyridin-3-yl]amino}-1H-pyrazole-4-carboxamide]
20 | 0.012 µM | N#C[C@H]1C[C@H](N2CCC2)CC[C@@H]1n1cc(C(N)=O)c(Nc2ccc([C@H](O)C(F)(F)F)cc2)n1 (single isomer, unassigned) [Example 28-65, 1-[(1S,2S,4R or 1R,2R,4S)-4-azetidin-1-yl-2-cyanocyclohexyl]-3-({4-[(1S or 1R)-2,2,2-trifluoro-1-hydroxyethyl]phenyl}amino)-1H-pyrazole-4-carboxamide]
21 | 0.01 µM | N#C[C@H]1C[C@@H](O)CC[C@@H]1n1cc(C(N)=O)c(Nc2ccc(C3CC3)cc2)n1 (single isomer, unassigned) [Example 33-18, 1-[(1S,2S,4S or 1R,2R,4R)-2-cyano-4-hydroxycyclohexyl]-3-[(4-cyclopropylphenyl)amino]-1H-pyrazole-4-carboxamide]
22 | 0.002 µM | N#C[C@@H]1CCCC[C@H]1n1cc(C(N)=O)c(Nc2ccc(S(=O)(=O)C(F)F)cc2)n1 (single isomer, unassigned) [Example 43-6, 1-[(1S,2S or 1R,2R)-2-cyanocyclohexyl]-3-({4-[(difluoromethyl)sulfonyl]phenyl}amino)-1H-pyrazole-4-carboxamide]
23 | 0.107 µM | N#C[C@H]1C[C@@H](OC(=O)Nc2ccccc2)CCC1n1cc(C(N)=O)c(Nc2ccc(F)cc2)n1 (mixture of isomers) [Example 34-1, (1S,3S,4S and 1R,3R,4R)-4-{4-Carbamoyl-3-[(4-fluorophenyl)amino]-1H-pyrazol-1-yl}-3-cyanocyclohexyl phenylcarbamate]
24 | 0.024 µM | N#C[C@H]1C[C@H](NCC2CC2)CC[C@@H]1n1cc(C(N)=O)c(Nc2ccc(S(=O)(=O)C(F)(F)F)cc2)n1 (single isomer, unassigned) [Example 28-173, 1-{(1S,2S,4R or 1R,2R,4S)-2-cyano-4-[(cyclopropyl-methyl)amino]cyclohexyl}-3-({4-[(trifluoro-methyl)sulfonyl]phenyl}amino)-1H-pyrazole-4-carboxamide]
25 | 0.025 µM | CC1(N[C@H]2CCC(n3cc(C(N)=O)c(Nc4ccc(Cl)cc4)n3)[C@@H](C#N)C2)CCOCC1 (single isomer, unassigned) [Example 28-235, 3-[(4-chlorophenyl)amino]-1-{(1S,2S,4S or 1R,2R,4R)-2-cyano-4-[(4-methyltetrahydro-2H-pyran-4-yl)amino]cyclohexyl}-1H-pyrazole-4-carboxamide]
26 | 0.035 µM | CC1(CN[C@H]2CC[C@H](n3cc(C(N)=O)c(Nc4ccc(C(F)(F)F)cc4)n3)[C@@H](C#N)C2)COC1 (single isomer, unassigned) [Example 28-26, 1-[(1S,2S,4S or 1R,2R,4R)-2-cyano-4-{[(3-methyloxetan-3-yl)methyl]amino}cyclohexyl]-3-{[4-(trifluoromethyl)phenyl]amino}-1H-pyrazole-4-carboxamide]
